For this assay, the system named is Schwanniomyces castellii strain ATCC 26077. The assay can be described thus: Mutagenic treatment, mutants resistant to 2-deoxy-glucose on potato starch agar. Type of assay: cell-based, Schwanniomyces castelli. The note with it: EMS treatment. As for the experimental part: The present invention also relates to the production of a novel strain of Schwanniomyces castellii. The mutant strain Schwanniomyces castellii NCYC 1461 was produced by treating a known strain, Schwanniomyces castellii ATCC 26077 with known mutagenic agents. The survivors were cultured on potato starch agar in the presence of concentrations of deoxyglucose at least as high as 10-^3 molar. […] Accordingly, the selection of the mutant strain is particularly desirable in the production of the above-mentioned culture filtrate having amylolytic enzyme activity. By means of such a selection there is a large proportionate increase in the relative amount of alpha-amylase present in the clarified culture filtrate. This novel strain of Schwanniomyces castellii is available upon request from the Yeast Collection of the National Collection of Yeast Cultures Depository ("NCYC"), Food Research Institute, Norwich, Norfolk, England. The ascession number of that organism in the above-mentioned repository is NCYC 1461. Schwanniomyces castellii strain NCYC 1461 is one of a number of mutant strains of Schwanniomyces castellii that .were produced by way of the above-outlined mutagenic treatment of Schwanniomyces castellii strain ATCC 26077. The particulars of the mutagenic treatments are detailed below in Table III which indicates the time of exposure, the percent survival rate, and the frequency of mutation for both of the treatments employed.

Structures are written as SMILES.

With `CCOS(C)(=O)=O` [EMS], the “% Survival” value is on record as 66% (time of exposure 30 min) and 14% (time of exposure 60 min). Moreover, the Frequency of mutation by setting is: (time of exposure 30 min) 10^-3; (time of exposure 60 min) 2×10^-4.

Values taken from patent publication EP0125615B1, “Schwanniomyces castellii strains and brewing process” (LABATT BREWING COMPANY LIMITED, priority 1983, dated 1984).
